Test results from ChEMBL document CHEMBL1131672, “6-(1-Hydroxyalkyl))penam sulfone derivatives as inhibitors of class A and class C beta-lactamases II” (Bioorg Med Chem Lett, 1999).
In brackets after ≈: the same amount, converted by molar mass.

How the values were obtained:
[1] = molecular target: Beta-lactamase (Escherichia coli K-12, UniProt P00811); assay: Inhibitory activity against AmpC (class C) beta-lactamase
[2] = test system: Escherichia coli; assay: In vitro inhibitory activity against Escherichia coli; format: functional
[3] = test system: Serratia marcescens; assay: In vitro inhibitory activity against Serratia marcescens; format: functional
[4] = test system: Escherichia coli; assay: In vivo inhibitory activity against Escherichia coli in mice; format: functional
[5] = test system: Serratia marcescens; assay: In vivo inhibitory activity against Serratia marcescens in mice; format: functional
[6] = molecular target: Beta-lactamase TEM (Escherichia coli, UniProt P62593); assay: Inhibitory activity against TEM-1 (class A) beta-lactamase
Beta-lactamase TEM, sequence (P62593 whole entry): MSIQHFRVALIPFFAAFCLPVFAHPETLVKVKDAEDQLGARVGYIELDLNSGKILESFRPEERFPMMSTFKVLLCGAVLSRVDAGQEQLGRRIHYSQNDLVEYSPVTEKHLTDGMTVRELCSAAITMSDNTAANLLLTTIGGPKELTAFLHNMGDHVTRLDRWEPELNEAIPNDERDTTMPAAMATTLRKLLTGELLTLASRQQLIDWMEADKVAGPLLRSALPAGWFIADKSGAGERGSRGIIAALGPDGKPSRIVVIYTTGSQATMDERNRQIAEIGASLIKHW

Beta-lactamase, sequence (P00811 whole entry): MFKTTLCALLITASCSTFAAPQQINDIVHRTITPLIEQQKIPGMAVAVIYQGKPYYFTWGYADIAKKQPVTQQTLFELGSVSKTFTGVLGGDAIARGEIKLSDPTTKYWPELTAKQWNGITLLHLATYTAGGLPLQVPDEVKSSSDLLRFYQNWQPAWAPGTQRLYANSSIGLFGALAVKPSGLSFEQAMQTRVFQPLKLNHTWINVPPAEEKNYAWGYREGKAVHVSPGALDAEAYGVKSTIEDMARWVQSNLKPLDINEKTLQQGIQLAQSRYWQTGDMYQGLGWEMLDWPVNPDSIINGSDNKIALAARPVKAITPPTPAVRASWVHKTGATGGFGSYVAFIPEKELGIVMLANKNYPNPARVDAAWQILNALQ

SMILES | IC50 [1] [nM] | MIC [2] [µg/mL] | MIC [3] [µg/mL] | ED50 [4] [mg/kg] | ED50 [5] [mg/kg] | IC50 [6] [nM]
C[C@]1(/C=C/C#N)[C@H](C(=O)[O-])N2C(=O)[C@@H](CO)[C@H]2S1(=O)=O.[Na+] | 280 | 16 | 4 |  |  | 
C[C@]1(/C=C\C#N)[C@H](C(=O)[O-])N2C(=O)[C@@H](CO)[C@H]2S1(=O)=O.[Na+] | 270 | 4 | 8 | 4 | 16 | 
C[C@]1(Cn2ccnn2)[C@H](C(=O)[O-])N2C(=O)[C@@H](CO)[C@H]2S1(=O)=O.[Na+] |  | 2 | 16 | 3.6 | 125 | 6
CO/N=C/C1(C)[C@H](C(=O)O)N2C(=O)[C@@H](CO)[C@H]2S1(=O)=O (single isomer, unassigned) | 280 | 8 (≈ 26.1 µM) | 16 (≈ 52.2 µM) |  |  | 64
CC1(C=CC#N)[C@H](C(=O)O)N2C(=O)C[C@H]2S1(=O)=O (single isomer, unassigned) [Ro-481220] | 1130 | 4 (≈ 14.8 µM) | 4 (≈ 14.8 µM) | 15 | 82 | 42
CCN1CCN(C(=O)N[C@@H](C(=O)N[C@@H]2C(=O)N3[C@@H]2SC(C)(C)[C@@H]3C(=O)O)c2ccccc2)C(=O)C1=O [PIPERACILLIN] |  | > 64 | 32 (≈ 61.8 µM) | 256 | 128 | 
C[C@]1(Cn2ccnn2)[C@H](C(=O)[O-])N2C(=O)C[C@H]2S1(=O)=O.[Na+] [TAZOBACTAM SODIUM] |  | 2 | 32 | 7.7 | 144 | 
